This passage reports EC50 results from patent publication US12583861B2, “Derivatives of imidazo[4,5-d]pyridazine, their preparation and their therapeutic application” (SANOFI, priority 2021, dated 2026).

The target in one assay is T1, human TLR7 (Homo sapiens, UniProt Q9NYK1).
T1 construct: host or cells: HEK293 (HEK-Blue hTLR7)
T1 sequence (Q9NYK1 27-1049): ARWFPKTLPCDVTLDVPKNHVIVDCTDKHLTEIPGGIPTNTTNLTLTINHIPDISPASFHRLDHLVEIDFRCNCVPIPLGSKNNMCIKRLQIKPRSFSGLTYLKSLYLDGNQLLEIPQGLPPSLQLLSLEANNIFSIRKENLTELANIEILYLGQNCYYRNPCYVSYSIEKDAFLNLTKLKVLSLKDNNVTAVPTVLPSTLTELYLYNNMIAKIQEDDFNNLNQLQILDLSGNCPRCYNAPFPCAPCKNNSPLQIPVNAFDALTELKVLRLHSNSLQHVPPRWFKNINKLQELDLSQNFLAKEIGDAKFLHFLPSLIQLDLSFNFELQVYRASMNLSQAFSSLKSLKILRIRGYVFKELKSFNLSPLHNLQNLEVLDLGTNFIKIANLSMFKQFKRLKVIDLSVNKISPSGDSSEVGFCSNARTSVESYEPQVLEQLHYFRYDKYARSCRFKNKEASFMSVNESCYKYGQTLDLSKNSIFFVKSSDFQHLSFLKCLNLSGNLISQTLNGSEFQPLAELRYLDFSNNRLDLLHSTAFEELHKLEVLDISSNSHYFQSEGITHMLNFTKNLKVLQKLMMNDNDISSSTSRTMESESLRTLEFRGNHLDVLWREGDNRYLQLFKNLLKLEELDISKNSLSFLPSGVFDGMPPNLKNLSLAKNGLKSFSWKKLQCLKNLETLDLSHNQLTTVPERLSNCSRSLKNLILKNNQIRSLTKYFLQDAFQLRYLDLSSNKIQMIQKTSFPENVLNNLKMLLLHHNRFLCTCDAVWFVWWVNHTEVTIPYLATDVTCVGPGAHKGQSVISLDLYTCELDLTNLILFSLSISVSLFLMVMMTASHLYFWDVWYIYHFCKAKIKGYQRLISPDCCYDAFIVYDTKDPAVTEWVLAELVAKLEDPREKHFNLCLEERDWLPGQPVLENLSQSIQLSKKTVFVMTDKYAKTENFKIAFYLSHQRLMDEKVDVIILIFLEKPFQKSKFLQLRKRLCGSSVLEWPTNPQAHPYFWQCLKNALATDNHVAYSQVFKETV
Description: HEK-Blue hTLR7 reporter cell assay (SEAP, NF-kB/AP-1) for stimulation of human TLR7. It counts as cell-based. The conditions noted are these: HEK-Blue hTLR7 cells, 24 h incubation, SEAP readout; read-out: TLR7_EC50. Here is the method: (§1) The below tests, involving measuring the in vitro activity of some compounds of the disclosure on TLR7 and TLR8, were carried out using the HEK-Blue™ cells as reporter.
The activity described below, with respect to TLR7, TLR8, IFN-α2a, IL-6, IL29 and TNF-α, is given by the half maximal effective concentration (EC50), which corresponds to the concentration required to obtain a 50% of the activation. The lower the EC50, the less the concentration of the compound is required to produce 50% of maximum activation and the higher the potency.
(§2) In Vitro Assay for Studying the Stimulation of Human TLR7 and TLR8:
(§3) HEK-Blue™ hTLR7 Cells (#hkb-htlr7) and HEK-Blue™ hTLR8 Cells (#hkb-htlr8) from InvivoGen were used according to the manufacturer's instructions. These Reporter HEK293 cells were obtained by co-transfection of the hTLR7 or TLR8 gene and an optimized Secreted Embryonic Alkaline Phosphatase (SEAP) reporter gene which is placed under the control of the IFN-β minimal promoter fused to five NF-κB and AP-1-binding sites. Stimulation with a TLR7/8 ligand activates NF-kB and AP-1 which induce the production of SEAP. The cells are seeded in 96-well plate at 3.10E4 cells/well and incubated 18 to 24 h at 37° C., 5% CO2 before adding the compounds to evaluate. The cells are subsequently incubated with 3-fold serial dilutions of each of the compounds (0.01 to 20 μM) for 24 hours at 37° C., 5% CO2. Next, 20 μL of the supernatant is harvested and incubated with 200 μL of QUANTI-Blue™ Solution.

Another assay deals with T2, human TLR8 (Homo sapiens, UniProt Q9NR97).
T2 construct: host or cells: HEK293 (HEK-Blue hTLR8)
T2 sequence (Q9NR97 27-1041): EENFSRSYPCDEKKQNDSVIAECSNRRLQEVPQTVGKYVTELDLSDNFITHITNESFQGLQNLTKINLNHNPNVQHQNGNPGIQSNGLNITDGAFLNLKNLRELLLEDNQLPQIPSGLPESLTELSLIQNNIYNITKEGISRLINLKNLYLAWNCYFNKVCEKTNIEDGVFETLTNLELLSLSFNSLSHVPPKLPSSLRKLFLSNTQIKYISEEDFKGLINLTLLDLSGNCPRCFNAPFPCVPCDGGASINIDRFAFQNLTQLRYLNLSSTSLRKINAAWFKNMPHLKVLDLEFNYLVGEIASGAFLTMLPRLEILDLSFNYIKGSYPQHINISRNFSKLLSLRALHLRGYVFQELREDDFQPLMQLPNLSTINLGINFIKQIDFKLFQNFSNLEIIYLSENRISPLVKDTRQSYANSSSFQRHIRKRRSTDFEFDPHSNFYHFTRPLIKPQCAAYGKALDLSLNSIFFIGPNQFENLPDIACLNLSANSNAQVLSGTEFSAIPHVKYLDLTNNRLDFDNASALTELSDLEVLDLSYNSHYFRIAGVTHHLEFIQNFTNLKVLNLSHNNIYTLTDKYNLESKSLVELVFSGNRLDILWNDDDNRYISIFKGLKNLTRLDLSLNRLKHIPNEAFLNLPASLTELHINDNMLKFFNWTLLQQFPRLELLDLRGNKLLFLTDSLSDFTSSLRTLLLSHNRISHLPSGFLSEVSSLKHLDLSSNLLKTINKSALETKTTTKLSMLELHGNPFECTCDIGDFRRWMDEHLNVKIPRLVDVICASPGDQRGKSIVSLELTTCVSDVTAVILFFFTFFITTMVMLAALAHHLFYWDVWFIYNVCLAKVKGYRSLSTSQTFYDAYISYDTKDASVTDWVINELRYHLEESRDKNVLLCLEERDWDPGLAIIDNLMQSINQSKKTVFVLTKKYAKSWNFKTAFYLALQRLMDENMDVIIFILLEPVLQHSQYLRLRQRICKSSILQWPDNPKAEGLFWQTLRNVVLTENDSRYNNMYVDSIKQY
Description: HEK-Blue hTLR8 reporter cell assay (SEAP, NF-kB/AP-1) for stimulation of human TLR8. It counts as cell-based. The conditions noted are these: HEK-Blue hTLR8 cells, 24 h incubation, SEAP readout; read-out: TLR8_EC50. Here is the method:
as §1, §2
as §3, with “The cells are subsequently incubated with 3-fold serial dilutions of each of the compounds (0.01 to 20 μM) for 24 hours at 37° C., 5% CO2.” left out

Structures can show the parent of a compound that is named as a salt. Some results are limits rather than exact numbers.

On to `CCCCc1nc2c(N)nnc(OC(C)C)c2n1C[C@H]1CCC[C@H](N)C1` (racemic) [Compound 32, 1-(((1S,3S)-3-aminocyclohexyl)methyl)-2-butyl-7-isopropoxy-1H-imidazo[4,5-]pyridazin-4-amine], for which the EC50 at human TLR7 came to 598 nM; on human TLR8 it was 709 nM. Consider `CCCCc1nc2c(N)nnc(OC3CC[S+]([O-])C3)c2n1Cc1ccc(OC)cc1` (single isomer, unassigned; isomer a) [Compound 65, 3-((4-amino-2-butyl-1-(4-methoxybenzyl)-1H-imidazo[4,5-d]pyridazin-7-yl)oxy)tetrahydrothiophene 1-oxide isomer A], for which the values for the EC50 on human TLR7 and on human TLR8 were 2210 nM and over 20000 nM, respectively. For `CCCCc1nc2c(N)nnc(OC3CC[S+]([O-])C3)c2n1Cc1ccc(OC)cc1` (single isomer, unassigned; isomer b) [Compound 69, 3-((4-amino-2-butyl-1-(4-methoxybenzyl)-1H-imidazo[4,5-d]pyridazin-7-yl)oxy)tetrahydrothiophene 1-oxide isomer B], the EC50 at human TLR7 is 6760 nM; on human TLR8 it was over 20000 nM. The like results for `CCCCc1nc2c(N)nnc(OCCC)c2n1Cc1ccc(OC)cc1` [Compound 5, 2-butyl-1-(4-methoxybenzyl)-7-propoxy-1H-imidazo[4,5-d]pyridazin-4-amine] were, in that order, 145 nM and over 20000 nM. The like results for `CCCCc1nc2c(N)nnc(OC(C)CC)c2n1Cc1ccc(OC)cc1` (centres unmarked) [Compound 7, 7-(sec-butoxy)-2-butyl-1-(4-methoxybenzyl)-1H-imidazo[4,5-d]pyridazin-4-amine] were, in that order, 46 nM and 2100 nM. Turning to `CCCCOc1nnc(N)c2nc(CCCC)n(Cc3ccc(OC)cc3)c12` [Compound 8, 7-butoxy-2-butyl-1-(4-methoxybenzyl)-1H-imidazo[4,5-d]pyridazin-4-amine], the values for the EC50 at human TLR7 and at human TLR8 were 168 nM and over 20000 nM, respectively. As for `CCCCc1nc2c(N)nnc(-c3ccn(C)c3)c2n1Cc1ccc(OC)cc1` [Compound 11, 2-butyl-1-(4-methoxybenzyl)-7-(1-methyl-1H-pyrrol-3-yl)-1H-imidazo[4,5d]pyridazin-4-amine], the EC50 was 192 nM at human TLR7 and over 20000 nM at human TLR8.

Regarding `CCCCc1nc2c(N)nnc(/C=C/C(C)C)c2n1Cc1ccc(OC)cc1` [Compound 12, (E)-2-butyl-1-(4-methoxybenzyl)-7-(3-methylbut-1-en-1-yl)-1H-imidazo[4,5-d]pyridazin-4-amine], the EC50 on human TLR7 is 710 nM; on human TLR8 it was over 20000 nM. The like results for `CCCCc1nc2c(N)nnc(CCC(C)C)c2n1Cc1ccc(OC)cc1` [Compound 13, 2-butyl-7-isopentyl-1-(4-methoxybenzyl)-1H-imidazo[4,5-d]pyridazin-4-amine] were, in that order, 345 nM and over 20000 nM. Turning to `CCCCc1nc2c(N)nnc(C3=CCCC3)c2n1Cc1ccc(OC)cc1` [Compound 15, 2-butyl-7-(cyclopent-1-en-1-yl)-1-(4-methoxybenzyl)-1H-imidazo[4,5-d]pyridazin-4-amine hydrochloride], the EC50 at human TLR7 was 649 nM; at human TLR8 it was over 20000 nM. With `CCCCc1nc2c(N)nnc(C3CCCC3)c2n1Cc1ccc(OC)cc1` [Compound 16, 2-butyl-7-cyclopentyl-1-(4-methoxybenzyl)-1H-imidazo[4,5-d]pyridazin-4-amine], the values for the EC50 on human TLR7 and at human TLR8 were 323 nM and over 20000 nM, respectively.

For `CCCCc1nc2c(N)nnc(OC(C)C)c2n1C[C@H]1CC[C@H](CN)CC1` [Compound 19, 4-(aminomethyl)cyclohexyl)methyl)-2-butyl-7-isopropoxy-1H-imidazo[4,5-d]pyridazin-4-amine dihydrochloride], the EC50 at human TLR7 is 32 nM; at human TLR8, over 20000 nM.

Turning to `CCCCc1nc2c(N)nnc(OC(C)C)c2n1CC(C)(C)O` [Compound 24, 1-(4-amino-2-butyl-7-isopropoxy-1H-imidazo[4,5-d]pyridazin-1-yl)-2-methylpropan-2-ol], the EC50 on human TLR7 amounted to 234 nM; on human TLR8 it was 2640 nM. The like results for `CCCCc1nc2c(N)nnc(OC(C)C)c2n1C[C@H]1CC[C@H](N)CC1` [Compound 25] were, in that order, 109 nM and over 20000 nM. The like results for `CCCCc1nc2c(N)nnc(OC(C)C)c2n1Cc1ccc(CN)cn1` [Compound 26, 1-((5-(aminomethyl)pyridin-2-yl)methyl)-2-butyl-7-isopropoxy-1H-imidazo[4,5-d]pyridazin-4-amine] were, in that order, 144 nM and over 20000 nM.

In the case of `CCCCc1nc2c(N)nnc(OC(C)C)c2n1Cc1ccc(CNC(=O)c2ccccc2)cc1` [Compound 106, N-(4-((4-amino-2-butyl-7-isopropoxy-1H-imidazo[4,5-d]pyridazin-1-yl)methyl)benzyl)benzamide], the EC50 at human TLR7 came out at 68 nM.

Consider `CCCCc1nc2c(N)nnc(OC(C)C)c2n1CCCCCCNC1CS(=O)(=O)C1` [Compound 154, 2-butyl-3-[6-[(1,1-dioxothietan-3-yl)amino]hexyl]-4-isopropoxy-imidazo[4,5-d]pyridazin-7-amine], for which, on human TLR7, the EC50 came out at 117 nM.
